Drawing on US20100144733A1, “Compounds, compositions and methods comprising heteroaromatic derivatives” (Institute for OneWorld Health, priority 2008, published 2010), this text covers IC50 for 34 compounds.

pIC50: −log10 of the molar value.

T1 sequence (P13569 whole entry): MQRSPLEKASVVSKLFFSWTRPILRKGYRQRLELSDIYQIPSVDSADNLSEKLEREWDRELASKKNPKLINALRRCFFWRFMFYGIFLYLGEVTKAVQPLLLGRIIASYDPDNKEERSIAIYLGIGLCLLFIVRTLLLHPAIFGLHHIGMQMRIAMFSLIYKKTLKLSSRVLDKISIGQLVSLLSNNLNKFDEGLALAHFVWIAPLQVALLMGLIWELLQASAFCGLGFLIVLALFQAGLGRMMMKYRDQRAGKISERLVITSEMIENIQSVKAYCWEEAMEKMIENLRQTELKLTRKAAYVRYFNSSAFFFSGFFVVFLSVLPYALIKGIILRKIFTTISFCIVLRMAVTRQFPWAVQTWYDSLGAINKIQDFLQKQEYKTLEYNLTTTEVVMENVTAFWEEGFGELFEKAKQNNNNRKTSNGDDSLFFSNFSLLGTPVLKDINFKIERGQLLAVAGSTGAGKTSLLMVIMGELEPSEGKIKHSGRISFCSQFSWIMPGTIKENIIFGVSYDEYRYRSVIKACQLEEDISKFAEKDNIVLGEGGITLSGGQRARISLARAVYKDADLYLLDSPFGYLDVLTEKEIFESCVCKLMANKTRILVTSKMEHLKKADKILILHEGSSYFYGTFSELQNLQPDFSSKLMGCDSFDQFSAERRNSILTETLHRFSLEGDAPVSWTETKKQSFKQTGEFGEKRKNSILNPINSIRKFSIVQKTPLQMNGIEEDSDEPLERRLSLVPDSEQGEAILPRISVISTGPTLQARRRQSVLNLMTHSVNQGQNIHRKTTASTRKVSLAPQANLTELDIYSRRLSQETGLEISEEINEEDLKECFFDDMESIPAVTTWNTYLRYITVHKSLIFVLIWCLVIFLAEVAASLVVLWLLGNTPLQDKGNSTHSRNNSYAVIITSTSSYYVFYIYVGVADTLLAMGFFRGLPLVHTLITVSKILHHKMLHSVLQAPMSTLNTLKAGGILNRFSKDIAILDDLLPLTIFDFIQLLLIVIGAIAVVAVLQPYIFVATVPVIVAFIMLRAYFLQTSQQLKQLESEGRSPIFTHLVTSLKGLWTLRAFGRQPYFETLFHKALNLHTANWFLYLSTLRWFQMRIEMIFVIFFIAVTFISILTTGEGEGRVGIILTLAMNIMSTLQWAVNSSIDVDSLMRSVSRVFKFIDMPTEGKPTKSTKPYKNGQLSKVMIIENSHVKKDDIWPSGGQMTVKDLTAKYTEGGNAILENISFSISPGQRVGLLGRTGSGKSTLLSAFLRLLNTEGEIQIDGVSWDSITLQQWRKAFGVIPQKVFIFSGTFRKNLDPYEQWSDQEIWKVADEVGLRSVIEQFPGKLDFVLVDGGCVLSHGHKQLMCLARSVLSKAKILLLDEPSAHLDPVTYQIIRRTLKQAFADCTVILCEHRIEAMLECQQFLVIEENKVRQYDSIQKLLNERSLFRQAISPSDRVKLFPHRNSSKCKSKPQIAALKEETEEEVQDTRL

The first assay has as its target T1, CFTR (Homo sapiens, UniProt P13569).
T1 construct: endogenous in cells; host or cells: T84 human colonic cells (ECACC)
The assay can be described thus: T84 assay (FLIPR membrane potential dye, forskolin/IBMX-stimulated CFTR channel activity). The format is cell-based. The settings on record: imidazole and triazole-containing compounds (Tables 13, 14, 14′), read-out: IC50 (μM) (T84 assay). The method, boiled down: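 Fluorescence from a membrane potential dye in T84 monolayers (HBSS with 10 mM Hepes) is followed each second for 150 s. Cells are exposed to test compound during the 45 min dye loading, then challenged with forskolin (10 μM) and IBMX (100 μM) to open CFTR. Inhibitors suppress the depolarization-driven fluorescence increase.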
As to `CC(C)(C)c1ccc(CN(CCOCCOCCOCCOCCOCCOCc2ccccc2)C(=O)c2ncn(-c3cc(Cl)c(O)c(Cl)c3)n2)cc1` [116i, N-(4-tert-butylbenzyl)-1-(3,5-dichloro-4-hydroxyphenyl)-N-(1-phenyl-2,5,8,11,14,17-hexaoxanonadecan-19-yl)-1H-1,2,4-triazole-3-carboxamide], the 50% inhibitory concentration (IC50) (commonly the concentration that inhibits the measured activity by half) worked out at 2.8 µM.

With `O=C(c1ncn(-c2cc(Cl)c(O)c(Cl)c2)n1)N(Cc1ccccc1)Cc1cccc(OC(F)(F)F)c1` [84i, N-benzyl-1-(3,5-dichloro-4-hydroxyphenyl)-N-(3-(trifluoromethoxy)benzyl)-1H-1,2,4-triazole-3-carboxamide], the IC50 was 6.81 µM. Still for that read-out and setting: to `CN(Cc1ccc(Cl)cc1)C(=O)c1ncn(-c2cc(Cl)c(O)c(Cl)c2)n1` [22i, N-(4-chlorobenzyl)-1-(3,5-dichloro-4-hydroxyphenyl)-N-methyl-1H-1,2,4-triazole-3-carboxamide] belongs 18.1 µM; to `O=C(c1ccccc1)C1CCN(C(=O)c2ncn(-c3cc(Cl)c(O)c(Cl)c3)n2)CC1` [61i, (4-benzoylpiperidin-1-yl)(1-(3,5-dichloro-4-hydroxyphenyl)-1H-1,2,4-triazol-3-yl)methanone], 26.7 µM. Take `O=C(c1ncn(-c2cc(Cl)c(O)c(Cl)c2)n1)N(Cc1ccccc1)Cc1cccc(C(F)(F)F)c1` [85i, N-benzyl-1-(3,5-dichloro-4-hydroxyphenyl)-N-(3-(trifluoromethyl)benzyl)-1H-1,2,4-triazole-3-carboxamide]: the IC50 amounted to 3.16 µM. The same measure, in the same setting: to `CC(C)(C)CCN(Cc1cccc(C(F)(F)F)c1)C(=O)c1ncn(-c2cc(Cl)c(O)c(Cl)c2)n1` [79i, 1-(3,5-dichloro-4-hydroxyphenyl)-N-(3,3-dimethylbutyl)-N-(3-(trifluoromethyl)benzyl)-1H-1,2,4-triazole-3-carboxamide] belongs 2.23 µM; to `O=C(NCc1ccc(N2CCCCC2)cc1)c1ncn(-c2cc(Cl)c(O)c(Cl)c2)n1` [45i, 1-(3,5-dichloro-4-hydroxyphenyl)-N-(4-(piperidin-1-yl)benzyl)-1H-1,2,4-triazole-3-carboxamide], 8.22 µM.

The same assay, now with this note: isoxazole-containing compounds (Table 10, 10′, 11, 11′), read-out: IC50.
For the compound `CN(Cc1cccc(C(F)(F)F)c1)C(=O)c1cc(-c2cc(Br)c(O)c(Br)c2)on1` [3g, 5-(3,5-dibromo-4-hydroxyphenyl)-N-methyl-N-(3-(trifluoromethyl)benzyl)isoxazole-3-carboxamide], the pIC50 (as a rule, the IC50 on a negative log10 scale, so that one unit is a factor of ten) is 4.78. Same read-out and setting: the value for `CN(Cc1ccc(Cl)cc1)C(=O)c1cc(-c2cc(Br)c(O)c(Br)c2)on1` [5g, N-(4-chlorobenzyl)-5-(3,5-dibromo-4-hydroxyphenyl)-N-methylisoxazole-3-carboxamide] was 5.27.

The assay is the same for the next values; noted with them: oxadiazole-containing compounds (a series), average of at least 2 runs unless annotated n = 1, read-out: IC50.
On to `O=C(NCc1ccccc1Cl)c1noc(-c2cc(Cl)c(O)c(Cl)c2)n1` [83a, N-(2-chlorobenzyl)-5-(3,5-dichloro-4-hydroxyphenyl)-1,2,4-oxadiazole-3-carboxamide], for which the pIC50 was 5.14. The same measure, in the same setting: the value for `O=C(NCc1ccc(F)c(C(F)(F)F)c1)c1nc(-c2cc(Cl)c(O)c(Cl)c2)no1` [146a, 3-(3,5-dichloro-4-hydroxyphenyl)-N-(4-fluoro-3-(trifluoromethyl)benzyl)-1,2,4-oxadiazole-5-carboxamide] was 4.95; that for `Cc1ccc(Oc2ccc(CNC(=O)c3nc(-c4cc(Cl)c(O)c(Cl)c4)no3)cc2)cc1Cl` [193a, N-(4-(3-chloro-4-methylphenoxy)benzyl)-3-(3,5-dichloro-4-hydroxyphenyl)-1,2,4-oxadiazole-5-carboxamide] was 4.87; that for `O=C(c1nc(-c2cc(Cl)c(O)c(Cl)c2)no1)N(Cc1ccccc1)Cc1cccnc1` [167a, N-benzyl-3-(3,5-dichloro-4-hydroxyphenyl)-N-(pyridin-3-ylmethyl)-1,2,4-oxadiazole-5-carboxamide] was 5.02. Turning to `O=C(NCc1cc(F)c(F)c(F)c1)c1noc(-c2cc(Cl)c(O)c(Cl)c2)n1` [118a, 5-(3,5-dichloro-4-hydroxyphenyl)-N-(3,4,5-trifluorobenzyl)-1,2,4-oxadiazole-3-carboxamide], the negative logarithm of the IC50 (pIC50) is 5.25. On the same count and under the same terms, the value for `C=CCN(Cc1cccc(C(F)(F)F)c1)C(=O)c1nc(-c2cc(Br)c(O)c(Br)c2)no1` [59a, N-allyl-3-(3,5-dibromo-4-hydroxyphenyl)-N-(3-(trifluoromethyl)benzyl)-1,2,4-oxadiazole-5-carboxamide] was 5.47. The same measure, in the same setting: the value for `CN(Cc1ccc(C(F)(F)F)cc1)C(=O)c1noc(-c2cc(Cl)c(O)c(Cl)c2)n1` [87a, 5-(3,5-dichloro-4-hydroxyphenyl)-N-methyl-N-(4-(trifluoromethyl)benzyl)-1,2,4-oxadiazole-3-carboxamide] was 5.47; that for `O=C(NCc1cccc(OC(F)(F)F)c1)c1nc(-c2cc(Br)c(O)c(Br)c2)no1` [12a, 3-(3,5-dibromo-4-hydroxyphenyl)-N-(3-(trifluoromethoxy)benzyl)-1,2,4-oxadiazole-5-carboxamide] was 5.10; that for `O=C(NCc1cccc(OC(F)(F)F)c1)c1noc(-c2cc(Cl)c(O)c(Cl)c2)n1` [75a, 5-(3,5-dichloro-4-hydroxyphenyl)-N-(3-(trifluoromethoxy)benzyl)-1,2,4-oxadiazole-3-carboxamide] was 5.68. With `C=CCN(Cc1ccc(F)c(F)c1)C(=O)c1nc(-c2cc(Cl)c(O)c(Cl)c2)no1` [170a, N-allyl-3-(3,5-dichloro-4-hydroxyphenyl)-N-(3,4-difluorobenzyl)-1,2,4-oxadiazole-5-carboxamide], the pIC50 was 5.44. The same measure, in the same setting: the value for `O=C(c1nc(-c2cc(Br)c(O)c(Br)c2)no1)N(Cc1cccc(C(F)(F)F)c1)Cc1cccc(C(F)(F)F)c1` [21a, 3-(3,5-dibromo-4-hydroxyphenyl)-N,N-bis(3-(trifluoromethyl)benzyl)-1,2,4-oxadiazole-5-carboxamide] was 4.96; that for `CC(C)(C)C(=O)CN(Cc1cccc(OC(F)(F)F)c1)C(=O)c1nc(-c2cc(Cl)c(O)c(Cl)c2)no1` [164a, 3-(3,5-dichloro-4-hydroxyphenyl)-N-(3,3-dimethyl-2-oxobutyl)-N-(3-(trifluoromethoxy)benzyl)-1,2,4-oxadiazole-5-carboxamide] was 4.89.

In the case of `CN(Cc1ccccc1)C(=O)c1nc(-c2cc(Cl)c(O)c(Cl)c2)no1` [62a, N-benzyl-3-(3,5-dichloro-4-hydroxyphenyl)-N-methyl-1,2,4-oxadiazole-5-carboxamide], the negative-log IC50 (pIC50) is 4.73. Still for that read-out and setting: to `CC(C)(C)c1ccc(Oc2ccc(CNC(=O)c3nc(-c4cc(Cl)c(O)c(Cl)c4)no3)cc2)cc1` [192a, N-(4-(4-tert-butylphenoxy)benzyl)-3-(3,5-dichloro-4-hydroxyphenyl)-1,2,4-oxadiazole-5-carboxamide] belongs 4.75; to `O=C(c1nc(-c2cc(Br)c(O)c(Br)c2)no1)N1CCN(c2cccc(C(F)(F)F)c2)CC1` [6a, (3-(3,5-dibromo-4-hydroxyphenyl)-1,2,4-oxadiazol-5-yl)(4-(3-(trifluoromethyl)phenyl)piperazin-1-yl)methanone], 5.21; to `O=C(NCc1ccc(C(F)(F)F)cc1)c1nc(-c2cc(Br)c(O)c(Br)c2)no1` [37a, 3-(3,5-dibromo-4-hydroxyphenyl)-N-(4-(trifluoromethyl)benzyl)-1,2,4-oxadiazole-5-carboxamide], 4.64. Still for that read-out and setting: the value for `O=C(NC(c1ccccc1)c1ccccc1)c1nc(-c2cc(Br)c(O)c(Br)c2)no1` [5a, N-benzhydryl-3-(3,5-dibromo-4-hydroxyphenyl)-1,2,4-oxadiazole-5-carboxamide] was 5.28. As for `CC(C)(C)CCNC(=O)c1nc(-c2cc(Br)c(O)c(Br)c2)no1` [105a, 3-(3,5-dibromo-4-hydroxyphenyl)-N-(3,3-dimethylbutyl)-1,2,4-oxadiazole-5-carboxamide], the pIC50 is 4.64. Same read-out and setting: the value for `O=C(Nc1cccc(OC(F)(F)F)c1)c1nc(-c2cc(Br)c(O)c(Br)c2)no1` [24a, 3-(3,5-Dibromo-4-hydroxyphenyl)-N-(3-(trifluoromethoxy)phenyl)-1,2,4-oxadiazole-5-carboxamide] was 4.88. On to `O=C(NCc1ccc(F)c(F)c1)c1noc(-c2cc(Cl)c(O)c(Cl)c2)n1` [80a, 5-(3,5-dichloro-4-hydroxyphenyl)-N-(3,4-difluorobenzyl)-1,2,4-oxadiazole-3-carboxamide], for which the pIC50 is 5.09. On the same count and under the same terms, to `O=C(NCc1ccc(OC(F)(F)F)cc1)c1nc(-c2cc(Br)c(O)c(Br)c2)no1` [29a, 3-(3,5-Dibromo-4-hydroxyphenyl)-N-(4-(trifluoromethoxy)benzyl)-1,2,4-oxadiazole-5-carboxamide] belongs 4.86.

The same assay, now with this note: thiadiazole-containing compounds (Table 12), read-out: IC50.
On to `O=C(COc1c(Cl)cc(-c2nnc(CN3c4ccccc4Sc4ccccc43)s2)cc1Cl)N(CCO)CCO` [9h, 2-(4-(5-((10H-phenothiazin-10-yl)methyl)-1,3,4-thiadiazol-2-yl)-2,6-dichlorophenoxy)-N,N-bis(2-hydroxyethyl)acetamide], for which the pIC50 is 5.01.

As to `Oc1c(Cl)cc(-c2nnc(Oc3ccc(Oc4ccccc4)cc3)s2)cc1Cl` [10h, 2,6-dichloro-4-(5-(4-phenoxyphenoxy)-1,3,4-thiadiazol-2-yl)phenol], the negative logarithm of the IC50 (pIC50) is 4.68. Take `CN(CCO)C(=O)COc1c(Cl)cc(-c2nnc(CN3c4ccccc4Sc4ccccc43)s2)cc1Cl` [8h, 2-(4-(5-((10H-phenothiazin-10-yl)methyl)-1,3,4-thiadiazol-2-yl)-2,6-dichlorophenoxy)-N-(2-hydroxyethyl)-N-methylacetamide]: the pIC50 is 5.06.

As to `Oc1c(Cl)cc(-c2nnc(COc3ccc(F)cc3Cl)s2)cc1Cl` [2h, 2,6-dichloro-4(5-((2-chloro-4-fluorophenoxy)methyl)-1,3,4-thiadiazol-2-yl)phenol], the pIC50 was 5.25.
